{"source": "patent US20240034752A1", "about": "“ARTIFICIAL SHORT INTERFERING PEPTIDE FOR THE PHOSPHORYLATION SUBSTRATE OF DAPK1 AND ITS PHARMACEUTICAL APPLICATIONS” (priority 2021, published 2024)", "key": {"HT22 cells": {"system": "HT22 cells", "experiment": "Glutamate insult test in HT22 cells, MTT assay", "type": "cell-based, Mouse", "details": "for reduced HT22 cell death: 400 nM peptide; for reduced HT22 cell death / reduced cell death: 6 mM glutamate, 24 h, MTT", "description": "The group with 0 nM RvTAT-PKD-S205 was as a control. Cell Death rate (%)=100%×(Control OD−treatment OD)/Control OD. Data were shown as mean t SEM, (n=3), *p<0.05, **p<0.01, One-Way ANOVA followed by Multiple Comparisons versus the group with 0 nM RvTAT-PKD-S205 (Bonferroni t-test).\nAfter 24 hours following glutamate exposure, cell cytotoxicity was determined by the MTT assay. HT22 cells, without the presence of the test agents in culture medium, were exposed separately 42 of 59 to 6 mM Glutamate salt as a control. Cell Death (%)=100%×(Control OD−treatment OD)/Control OD. Data were shown as mean±SEM, (n=3) * p<0.05, **p<0.01, One-Way ANOVA followed by Multiple Comparisons versus Glutamate Control Group (Bonferroni t-test).\nThe cells of HT-22 Mouse Hippocampal neuronal cell line were cultured and maintained in DMEM 10% fetal bovine serum, 100 U/ml penicillin and 100 μg/ml streptomycin. Cells were maintained at a temperature of 37° C. in 5% CO2/95% air. During agent's treatments and experimentation, HT-22 cells were seeded in 96-well plates by 6×10^3 cells/well and cultured at 37° C. in a CO2 incubator for 24 h. Afterwards, For neuroprotection assays, HT22 cells were exposure to 6 mM glutamate by removing media and adding Neurobasal Medium with present of 2% B27 (B27 (B-27™ Plus Supplement (50×)) and various concentrations of test agents for further 24 hours at 37° C. in the CO2 incubator. Cell viability was assessed by MTT assay.\nCell viability was quantitatively measured by 3-[4,5-dimethylthiazol-2-yl]-2,5-diphenyltetrazolium bromide (MTT) assay.\nWater-soluble yellow dye MTT reagent (final concentration 0.5 mg/ml) was added to each well and incubated at 37° C. After 4 hours, the incubate medium was removed and 100 μl of Dimethyl Sulfoxide (DMSO) was added. After 30 min extraction at room temperature, the absorbance of the formazan solution is determined spectrophotometrically at 570 nm. MTT absorbance data were converted to reflect proportional cell viability relative to both the untreated and treated controls, wherein the untreated control was considered as 100% viability."}, "[1]": {"system": "rat primary cortical neurons", "experiment": "Oxygen-glucose deprivation (OGD)/reperfusion in primary cortical neuronal cultures, MTT assay", "type": "cell-based, Sprague Dawley rat", "description": "(§1) To induce OGD, EBSS containing 20 mM pH7.2 Sodium dithionite (Na2S2O4) solution with test agents were transiently exposed for 1.5 hrs, afterwards, for reperfusion, OGD culture medium was replaced with normal neurobasal media. The culture cells were further incubated for 20 hours, and cell cytotoxicity was assessed using the MTT assay. Non-OGD treated cell culture was as a control taken as 100% viability, Cell Death rate (%)=100%×(Control OD−treatment OD)/Control OD. Data were shown as mean±SEM, (n=3) * p<0.05, One-Way ANOVA followed by Multiple Comparisons versus OGD CTRL Group (Bonferroni t-test).\nas §1, with “peptides” for “agents”, “show” for “shown”, “(n=3)) ** p<0.01, *** p<0.005;” for “(n=3) * p<0.05,”\nPrimary cultures of mixed cortical cell cultures containing both neurons and glia were prepared from embryonic day 15-18 Sprague Dawley rat as described previously [Wenxiang Fan, 50 of 59 Xiang Li, Liangliang Huang, Shucheng He, Zhicheng Xie, Yuxin Fu, Weirong Fang, Yunman Li S-oxiracetam ameliorates ischemic stroke induced neuronal apoptosis through up-regulating α7nAChR and PI3K/Akt/GSK3β signal pathway in rats Neurochemistry International Volume 115, May 2018, Pages 50-60 https://doi.org/10.1016/j.Neuint.2018.01.008]. […]\nOxygen glucose deprivation were performed according to a previously method [J. Huang, N. D. Kodithuwakku, W. He. […] Finally, Cell viability was determined by MTT assay (same as 1.2) […]"}, "[2]": {"system": "transient middle cerebral artery occlusion/reperfusion (MCAO/R) stroke model", "experiment": "Transient MCAO/R stroke model, infarct volume by TTC staining", "type": "in vivo, Sprague-Dawley rats", "details": "3.5 mg/kg single i.v. bolus 4.5 h after ischemia onset; 90 min MCAO; TTC about 24 h; vs saline controls"}, "[3]": {"system": "transient bilateral common carotid artery occlusion (tBCCAO/R) global cerebral ischemia model", "experiment": "Brain edema (brain water content) after tBCCAO/R", "type": "in vivo, C57BL/6 mice", "details": "7 mg/kg i.v. 3 h after tBCCAO; 24 h reperfusion; vs saline controls", "description": "(§2) C57BL/6 mice were subjected to two times 20 minutes bilateral common carotid arteries occlusion followed by reperfusion (tBCCAO/R) and treated with 7 mg/2 ml/kg RvTAT-PKD-S205 or some volume Saline via tail vein administered after 3 hours of the tBCCAO. After 24 hours of reperfusion, the ischemic mice were estimated by the Y maze Passive Avoidance task, as well as the MDA content in hippocampus and brain water content. […] FIG. 6C show the MDA content in hippocampus collected from Ischemic or sham mice after 24 hours of reperfusion subject to MDA ELISA assay. […] Data were shown as mean±SEM, (n=11 in each group), *p<0.05, **p<0.01 compared to Saline control group using Student t test. Animal treatments were randomized, and all procedures were performed blinded to treatment.\nModeling: C57 […] male mice weighing 20-30 g (6-7 weeks old) were allowed free access to food and water and were housed under constant environmental conditions (a 12/12 h light/dark cycle). […]\nMice were assessed for brain edema by the dry/wet weight measurement after 24 hrs BCCAO/R. Wet weight was determined immediately after dissection of the brain, then the tissue was dried at 55° C. to a constant weight over 24 hours to determine the dry weight. The percentage of brain water content was calculated as (wet weight−dry weight)/wet weight*100."}, "[4]": {"system": "transient bilateral common carotid artery occlusion (tBCCAO/R) global cerebral ischemia model", "experiment": "Y-maze passive avoidance after tBCCAO/R", "type": "in vivo, C57BL/6 mice", "details": "7 mg/kg i.v. 3 h after tBCCAO; tested 24 h after tBCCAO/R; vs untreated group", "description": "as §2, with “treatment. […]” for “treatment.”\nThe day before surgery, the researchers train the mice to avoid electric shocks caused by light sources, which can minimize the effects of odor. […] Learning and memory skill was quantified by Y maze passive avoidance task 24 hours after tBCCAO/R modeling (FIG. 6A).\nAfter 24 hrs BCCAO/R mice were acclimatized to the testing room before conducting the Y-maze and allowed to familiarize themselves with the maze. […] A current stimulation of pre-determined intensity (0.05-0.8 mA) will be administered. […] The number to escape to the safe zone was recorded; any escapes to non-safe zones were regarded as erroneous. […]"}, "[5]": {"system": "MDA content in hippocampus", "experiment": "Malondialdehyde (MDA) assay after tBCCAO/R", "type": "in vivo, C57BL/6 mice", "details": "7 mg/kg i.v. 3 h after tBCCAO; 24 h reperfusion; vs saline", "description": "as §2, with “treatment. […]” for “treatment.”\nMDA is one of the important products of lipid peroxidation and the extent of lipid oxidation was determined by measuring MDA levels. […] The supernatants were collected after the lysates were centrifuged at 3,500 r/min for 10 min at 4° C., and MDA content was determined using MDA TCA kit (Nanjing Jiancheng Bioengineering Institute, Nanjing, China) following the manufacturer's protocol. The results were evaluated from the standard curve and calculated as nM/mg of tissue."}, "[6]": {"system": "transient middle cerebral artery occlusion/reperfusion (MCAO/R) stroke model", "experiment": "Rotarod motor performance after MCAO/R", "type": "in vivo, Sprague-Dawley rats", "details": "3.5 mg/kg i.v. 4.5 h after ischemia onset; for Holding time on rod increase: vs untreated control group"}}}
{"sequence": "RRRQRRKKRGKKRPQRRYSNVP [RvTAT-opMLC-S20]", "values": [{"measurement": "reduced HT22 cell death", "setting": "HT22 cells", "result": "~25", "unit": "%"}, {"measurement": "survival of neurons", "setting": "[1]; OGD model", "result": "did not significantly increase"}]}
{"sequence": "RRRQRRKKRGQIAKRRRLSSLRA [RvTAT-rSP6-S235, Fusion peptide: RvTAT at N-terminus of rSP6-S235]", "values": [{"measurement": "reduced HT22 cell death", "setting": "HT22 cells", "result": "about 29%"}]}
{"sequence": "RRRQRRKKRGRKPERRRLKTTRL [RvTAT-ZIPK-T299, Fusion peptide: RvTAT at N-terminus of ZIPK-T299]", "values": [{"measurement": "reduced HT22 cell death", "setting": "HT22 cells", "result": "about 33%"}, {"measurement": "reducing cortical neuronal death", "setting": "[1]; 1000 nM peptide added 30 min before OGD, 20 h reperfusion, MTT", "result": 12, "unit": "%"}]}
{"sequence": "RRRQRRKKRGNLSRRLKVTGDL [RvTAT-BECN1-T199, Fusion peptide: RvTAT at N-terminus of BECN1-T199]", "values": [{"measurement": "reduced HT22 cell death", "setting": "HT22 cells", "result": "~21", "unit": "%"}]}
{"sequence": "RRRQRRKKRGSGVRRRRLSNVSL [RvTAT-PKD-S205, Fusion peptide: RvTAT cell penetrating peptide at N-terminus of PKD-S205]", "values": [{"measurement": "reduced the volume of total cerebral infarction", "setting": "[2]", "result": "approximately 60%"}, {"measurement": "brain water content reduced", "setting": "[3]", "result": 8.5, "unit": "%"}, {"measurement": "increase in memory index (Y-maze passive avoidance)", "setting": "[4]", "result": 30, "unit": "%"}, {"measurement": "reduced cell death", "setting": "HT22 cells; 100 nM peptide", "result": 11, "unit": "%"}, {"measurement": "reduced cell death", "setting": "HT22 cells; 200 nM peptide", "result": 22, "unit": "%"}, {"measurement": "reduced cell death", "setting": "HT22 cells; 1600 nM peptide", "result": 24, "unit": "%"}, {"measurement": "most effective concentration", "setting": "HT22 cells; glutamate induced apoptosis model", "result": 400, "unit": "nM"}, {"measurement": "decrease in MDA level", "setting": "[5]", "result": 55, "unit": "%"}, {"measurement": "mean holding time, treated vs untreated", "setting": "[6]; 3 days after tMCAO", "result": "no significant differences"}, {"measurement": "Holding time on rod increase", "setting": "[6]; 5 days after tMCAO", "result": 70, "unit": "%"}, {"measurement": "Holding time on rod increase", "setting": "[6]; 7 days after tMCAO", "result": 75, "unit": "%"}, {"measurement": "reducing neuronal death", "setting": "[1]; 300 nM peptide added 30 min before OGD, 20 h reperfusion, MTT", "result": 12, "unit": "%"}]}
